Biological target: T1, MAGL (Homo sapiens, UniProt Q99685)
T1 sequence (Q99685 1-303): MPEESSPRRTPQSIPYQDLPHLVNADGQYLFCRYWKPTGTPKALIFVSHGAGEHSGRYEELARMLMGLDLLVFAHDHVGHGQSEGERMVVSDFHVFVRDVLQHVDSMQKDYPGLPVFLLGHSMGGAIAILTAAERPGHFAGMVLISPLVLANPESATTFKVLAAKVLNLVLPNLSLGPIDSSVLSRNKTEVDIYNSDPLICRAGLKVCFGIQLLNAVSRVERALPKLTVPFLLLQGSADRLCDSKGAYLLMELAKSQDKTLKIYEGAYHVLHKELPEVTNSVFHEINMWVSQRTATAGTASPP
Experiment: MAGL inhibition, Table 1 values with no assay marker (2-AG or 4-NPA assay not stated)
Assay type: biochemical
Procedure: Compounds were profiled for MAGL inhibitory activity by measuring the enzymatic activity of MAGL by following the hydrolysis of 4-nitrophenylacetate resulting in 4-nitrophenol, which absorbs at 405-412 nm (G. G. Muccioli, G. Labar, D. M. Lambert, Chem. Bio. Chem. 2008, 9, 2704-2710). This assay is hereinafter abbreviated “4-NPA assay”.
The 4-NPA assay was carried out in 384 well assay plates (black with clear bottom, non-binding surface treated, Corning Ref. 3655) in a total volume of 40 μL. Compound dilutions were made in 100% DMSO (VWR Chemicals 23500.297) in a polypropylene plate in 3-fold dilution steps to give a final concentration range in the assay from 25 μM to 1.7 nM. 1 μL compound dilutions (100% DMSO) were added to 19 μL MAGL (recombinant wild-type) in assay buffer (50 mM TRIS (GIBCO, 15567-027), 1 mM EDTA (Fluka, 03690-100 ml)). The plate was shaked for 1 min at 2000 rpm (Variomag Teleshake) and then incubated for 15 min at RT. To start the reaction, 20 μL 4-Nitrophenylacetate (Sigma N-8130) in assay buffer with 6% EtOH was added. The final concentrations in the assay were 1 nM MAGL and 300 μM 4-Nitrophenylacetate. After shaking (1 min, 2000 rpm) and 5 min incubation at RT, the absorbance at 405 nm was measured for a first time (Molecular Devices, SpectraMax Paradigm). A second measurement was then done after incubation for 80 min at RT. From the two measurements, the slope was calculated by subtracting the first from the second measurement.
Alternatively, compounds were profiled for MAGL inhibitory activity by determining the enzymatic activity by following the hydrolysis of the natural substrate 2-arachidonoylglycerol resulting in arachidonic acid, which can be followed by mass spectrometry. This assay is hereinafter abbreviated “2-AG assay”.
The 2-AG assay was carried out in 384 well assay plates (PP, Greiner Cat #784201) in a total volume of 20 μL. Compound dilutions were made in 100% DMSO (VWR Chemicals 23500.297) in a polypropylene plate in 3-fold dilution steps to give a final concentration range in the assay from 12.5 μM to […]. 0.25 μL compound dilutions (100% DMSO) were added to 9 μL MAGL in assay buffer (50 mM TRIS (GIBCO, 15567-027), 1 mM EDTA (Fluka, 03690-100 ml), 0.01% (v/v) Tween. After shaking, the plate was incubated for 15 min at RT. To start the reaction, 10 μL 2-arachidonoylglycerol in assay buffer was added. The final concentrations in the assay was […] and 8 μM 2-arachidonoylglycerol. After shaking and 30 min incubation at RT, the reaction was quenched by the addition of 40 μL of acetonitrile containing 4 μM of d8-arachidonic acid. The amount of arachidonic acid was traced by an online SPE system (Agilent Rapidfire) coupled to a triple quadrupole mass spectrometer (Agilent 6460). A C18 SPE cartridge (G9205A) was used in an acetonitrile/water liquid setup. The mass spectrometer was operated in negative electrospray mode following the mass transitions 303.1→259.1 for arachidonic acid and 311.1→267.0 for d8-arachidonic acid. The activity of the compounds was calculated based on the ratio of intensities [arachidonic acid/d8-arachidonic acid].

Row | Structure (SMILES) | IC50
1 | O=C1CO[C@H]2CCN(C(=O)N3CC4(CC(S(=O)(=O)c5ccc(F)cc5Cl)C4)C3)C[C@H]2N1 [Example 67, (4aR,8aS)-6-(6-((2-chloro-4-fluorophenyl)sulfonyl)-2-azaspiro[3.3]heptane-2-carbonyl)hexahydro-2H-pyrido[4,3-b][1,4]oxazin-3(4H)-one] | 67.1 nM
2 | O=C1CO[C@H]2CCN(C(=O)N3CC4(C3)CN(S(=O)(=O)c3ccc(C(F)(F)F)c(Cl)c3)C4)C[C@H]2N1 [Example 68, (4aR,8aS)-6-(6-((3-chloro-4-(trifluoromethyl)phenyl)sulfonyl)-2,6-diazaspiro[3.3]heptane-2-carbonyl)hexahydro-2H-pyrido[4,3-b][1,4]oxazin-3(4H)-one] | 357 nM
3 | O=C1CO[C@H]2CCN(C(=O)N3CC4(CC(c5ccc(C(F)(F)F)cc5F)C4)C3)C[C@H]2N1 [Example 45, (4aR,8aS)-6-(6-(2-fluoro-4-(trifluoromethyl)phenyl)-2-azaspiro[3.3]heptane-2-carbonyl)hexahydro-2H-pyrido[4,3-b][1,4]oxazin-3(4H)-one] | 37 nM
4 | O=C1CO[C@H]2CCN(C(=O)N3CC4(C3)CC(OCc3ccc(C(F)(F)F)cc3F)(C(F)(F)F)C4)C[C@H]2N1 [Example 44, (4aR,8aS)-6-(6-((2-fluoro-4-(trifluoromethyl)benzyl)oxy)-6-(trifluoromethyl)-2-azaspiro[3.3]heptane-2-carbonyl)hexahydro-2H-pyrido[4,3-b][1,4]oxazin-3(4H)-one] | 185 nM
5 | Cn1nccc1-c1ccc(C2CC3(C2)CN(C(=O)N2CC[C@@H]4OCC(=O)N[C@@H]4C2)C3)cc1 [Example 48, (4aR,8aS)-6-(6-(4-(1-methyl-1H-pyrazol-5-yl)phenyl)-2-azaspiro[3.3]heptane-2-carbonyl)hexahydro-2H-pyrido[4,3-b][1,4]oxazin-3(4H)-one] | 223 nM
6 | O=C1CO[C@H]2CCN(C(=O)N3CC4(CC(Cc5c(O)cccc5F)C4)C3)C[C@H]2N1 [Example 73, (4aR,8aS)-6-(6-(2-fluoro-6-hydroxybenzyl)-2-azaspiro[3.3]heptane-2-carbonyl)hexahydro-2H-pyrido[4,3-b][1,4]oxazin-3(4H)-one] | 0.1 nM
7 | O=C1CO[C@H]2CCN(C(=O)N3CC4(CC(c5ccc(N6CCCC6C(F)(F)F)cc5)C4)C3)C[C@H]2N1 (stereo partly drawn) [Example 47, (4aR,8aS)-6-(6-(4-(2-(trifluoromethyl)pyrrolidin-1-yl)phenyl)-2-azaspiro[3.3]heptane-2-carbonyl)hexahydro-2H-pyrido[4,3-b][1,4]oxazin-3(4H)-one] | 39.8 nM
8 | O=C1CO[C@H]2CCN(C(=O)N3CC4(C3)CN(c3cccc(C(F)(F)F)c3)C4)C[C@H]2N1 [Example 56, (4aR,8aS)-6-(6-(3-(trifluoromethyl)phenyl)-2,6-diazaspiro[3.3]heptane-2-carbonyl)hexahydro-2H-pyrido[4,3-b][1,4]oxazin-3(4H)-one] | 361 nM
9 | CC(C)Oc1ccc(N2CC3(CN(C(=O)N4CC[C@@H]5OCC(=O)N[C@@H]5C4)C3)C2)cc1 [Example 60, (4aR,8aS)-6-(6-(4-isopropoxyphenyl)-2,6-diazaspiro[3.3]heptane-2-carbonyl)hexahydro-2H-pyrido[4,3-b][1,4]oxazin-3(4H)-one] | 1590 nM
10 | O=C1CO[C@H]2CCN(C(=O)N3CC4(CC(Cc5ccccc5O)C4)C3)C[C@H]2N1 [Example 74, (4aR,8aS)-6-(6-(2-hydroxybenzyl)-2-azaspiro[3.3]heptane-2-carbonyl)hexahydro-2H-pyrido[4,3-b][1,4]oxazin-3(4H)-one] | 0.5 nM
11 | O=C1CO[C@H]2CCN(C(=O)N3CC4(CC(Cc5c(F)cccc5C(F)(F)F)C4)C3)C[C@H]2N1 [Example 53, (4aR,8aS)-6-(6-(2-fluoro-6-(trifluoromethyl)benzyl)-2-azaspiro[3.3]heptane-2-carbonyl)hexahydro-2H-pyrido[4,3-b][1,4]oxazin-3(4H)-one] | 0.05 nM
12 | O=C1CO[C@H]2CCN(C(=O)N3CC4(C3)CN(c3cc(C(F)(F)F)ccc3C(F)(F)F)C4)C[C@H]2N1 [Example 65, (4aR,8aS)-6-(6-(2,5-bis(trifluoromethyl)phenyl)-2,6-diazaspiro[3.3]heptane-2-carbonyl)hexahydro-2H-pyrido[4,3-b][1,4]oxazin-3(4H)-one] | 1100 nM
13 | CC(C)Oc1ccc(N2CC3(CCN(C(=O)N4CC[C@@H]5OCC(=O)N[C@@H]5C4)C3)C2)cc1 [Example 59, (4aR,8aS)-6-(2-(4-isopropoxyphenyl)-2,6-diazaspiro[3.4]octane-6-carbonyl)hexahydro-2H-pyrido[4,3-b][1,4]oxazin-3(4H)-one] | 297 nM
14 | O=C1CO[C@H]2CCN(C(=O)N3CCC4(C3)CN(c3ccc(Cl)c(C(F)(F)F)c3)C4)C[C@H]2N1 [Example 63, (4aR,8aS)-6-(2-(4-chloro-3-(trifluoromethyl)phenyl)-2,6-diazaspiro[3.4]octane-6-carbonyl)hexahydro-2H-pyrido[4,3-b][1,4]oxazin-3(4H)-one] | 15.9 nM
15 | O=C1CO[C@H]2CCN(C(=O)N3CCC4(C3)CN(c3ccc(N5CCCC5=O)cc3)C4)C[C@H]2N1 [Example 61, (4aR,8aS)-6-(2-(4-(2-oxopyrrolidin-1-yl)phenyl)-2,6-diazaspiro[3.4]octane-6-carbonyl)hexahydro-2H-pyrido[4,3-b][1,4]oxazin-3(4H)-one] | 2300 nM
16 | O=C1CO[C@H]2CCN(C(=O)N3CC4(CC(c5ccc(S(F)(F)(F)(F)F)cc5)C4)C3)C[C@H]2N1 [Example 46, (4aR,8aS)-6-(6-(4-(pentafluoro-l6-sulfaneyl)phenyl)-2-azaspiro[3.3]heptane-2-carbonyl)hexahydro-2H-pyrido[4,3-b][1,4]oxazin-3(4H)-one] | 14.5 nM
17 | COc1cc(C(F)(F)F)ccc1CC1CC2(C1)CN(C(=O)N1CC[C@@H]3OCC(=O)N[C@@H]3C1)C2 [Example 52, (4aR,8aS)-6-(6-(2-methoxy-4-(trifluoromethyl)benzyl)-2-azaspiro[3.3]heptane-2-carbonyl)hexahydro-2H-pyrido[4,3-b][1,4]oxazin-3(4H)-one] | 0.03 nM
18 | O=C1CO[C@H]2CCN(C(=O)N3CC4(C3)CN(c3ccc(C(F)(F)F)cc3)C4)C[C@H]2N1 [Example 55, (4aR,8aS)-6-(6-(4-(trifluoromethyl)phenyl)-2,6-diazaspiro[3.3]heptane-2-carbonyl)hexahydro-2H-pyrido[4,3-b][1,4]oxazin-3(4H)-one] | 1040 nM
19 | O=C1CO[C@H]2CCN(C(=O)N3CC4(C3)CN(S(=O)(=O)c3ccc(C(F)(F)F)cc3C(F)(F)F)C4)C[C@H]2N1 [Example 69, (4aR,8aS)-6-(6-((2,4-bis(trifluoromethyl)phenyl)sulfonyl)-2,6-diazaspiro[3.3]heptane-2-carbonyl)hexahydro-2H-pyrido[4,3-b][1,4]oxazin-3(4H)-one] | 214 nM
20 | O=C1CO[C@H]2CCN(C(=O)N3CC4(CC(Cc5ccc(C(F)(F)F)cc5F)C4)C3)C[C@H]2N1 [Example 49, (4aR,8aS)-6-(6-(2-fluoro-4-(trifluoromethyl)benzyl)-2-azaspiro[3.3]heptane-2-carbonyl)hexahydro-2H-pyrido[4,3-b][1,4]oxazin-3(4H)-one] | 0.03 nM

From US12577257B2, “Heterocyclic compounds” (Hoffmann-La Roche Inc., priority 2018, dated 2026)
